Source: US12172983B2, “EGFR inhibitors” (Blueprint Medicines Corporation, priority 2019, dated 2024)

Key:
[1] = molecular target: T1, EGFR (L858R T790M C797S) (Homo sapiens, UniProt P00533, C797S/L858R/T790M); assay: Biochemical EGFR inhibition assay (Caliper mobility shift), EGFR LRTMCS mutant; settings: inhibitory activity against EGFR LRTMCS mutant; apparent IC50; read-out: Ext Enz LRTMCS
T1 construct: purchased SignalChem E10-122VG
Summary of the method: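 Caliper mobility shift read-out: product and substrate peptides separated by electrophoresis and quantified. Reactions at 25° C. taken to 10–20% peptide phosphorylation, quenched with 35 mM EDTA. Apparent IC50 from percent activity vs log [compound].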

[2] = tested on: phosphorylation of EGFR (Tyr1068) in NCI-H1975 cell line that harbors the EGFR L858R T790M mutations; assay: NCI-H1975 pEGFR AlphaLISA assay; format: cell-based; settings: Homo sapiens, NCI-H1975, inhibition of phosphorylation of mutant EGFR in NCI-H1975 cells; 4-5 hours incubation; read-out: Ext pEGFR H1975
Summary of the method: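 NCI-H1975 cells (EGFR L858R/T790M) seeded overnight, then treated with compound for 4-5 h at 37 °C/5% CO2. After lysis, p-EGFR (Tyr1068) quantified by AlphaLISA SureFire Ultra with acceptor then donor beads; IC50 fitted from percent inhibition versus log concentration.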

T1 sequence (P00533 25-1210 T790M/C797S/L858R): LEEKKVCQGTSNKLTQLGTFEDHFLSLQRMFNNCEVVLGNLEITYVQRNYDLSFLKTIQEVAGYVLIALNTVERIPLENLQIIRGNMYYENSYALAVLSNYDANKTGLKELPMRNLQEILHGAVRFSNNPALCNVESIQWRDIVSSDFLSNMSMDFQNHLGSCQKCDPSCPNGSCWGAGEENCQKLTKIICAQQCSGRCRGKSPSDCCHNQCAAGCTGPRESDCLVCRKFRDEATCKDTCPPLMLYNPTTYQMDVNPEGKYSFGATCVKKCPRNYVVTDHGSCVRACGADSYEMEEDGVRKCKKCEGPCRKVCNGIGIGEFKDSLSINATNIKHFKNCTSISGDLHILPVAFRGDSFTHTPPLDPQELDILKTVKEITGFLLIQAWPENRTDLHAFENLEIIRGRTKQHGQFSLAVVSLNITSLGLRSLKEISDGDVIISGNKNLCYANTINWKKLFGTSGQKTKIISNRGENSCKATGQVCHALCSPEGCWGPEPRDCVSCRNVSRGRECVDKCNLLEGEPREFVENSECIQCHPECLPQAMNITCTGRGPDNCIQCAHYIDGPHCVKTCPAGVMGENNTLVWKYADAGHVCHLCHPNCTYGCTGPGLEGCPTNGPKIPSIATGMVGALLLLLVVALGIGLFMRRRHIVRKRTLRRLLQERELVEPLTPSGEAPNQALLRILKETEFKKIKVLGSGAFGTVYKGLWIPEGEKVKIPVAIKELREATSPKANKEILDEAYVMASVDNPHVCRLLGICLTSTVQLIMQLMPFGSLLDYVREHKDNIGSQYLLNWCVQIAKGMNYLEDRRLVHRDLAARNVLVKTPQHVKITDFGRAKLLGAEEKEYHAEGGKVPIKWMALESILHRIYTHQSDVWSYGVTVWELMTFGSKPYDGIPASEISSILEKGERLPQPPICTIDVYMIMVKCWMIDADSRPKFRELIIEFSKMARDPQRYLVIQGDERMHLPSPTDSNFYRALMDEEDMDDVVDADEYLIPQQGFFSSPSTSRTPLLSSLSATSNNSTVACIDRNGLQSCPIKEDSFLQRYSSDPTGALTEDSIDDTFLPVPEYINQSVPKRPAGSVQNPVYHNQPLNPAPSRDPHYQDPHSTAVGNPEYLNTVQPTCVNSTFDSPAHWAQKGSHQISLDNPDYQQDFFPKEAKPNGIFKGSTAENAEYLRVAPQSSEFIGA

Row | Compound | IC50 [1] | IC50 [2]
1 | CC(C)c1ccc(N2CC(CS(C)(=O)=O)C2)c2cnc(Nc3ccnc(N4C[C@H]5CC[C@@H](C4)[C@@H]5O)n3)cc12 [Compound 39, Rac (1R,5S,8S)-3-[4-({8-[3-(methanesulfonylmethyl)azetidin-1-yl]-5-(propan-2-yl)isoquinolin-3-yl}amino)pyrimidin-2-yl]-3-azabicyclo[3.2.1]octan-8-ol] | ≤ 15 nM | 30.1 to 50 nM
2 | CCS(=O)(=O)CC1CN(c2ccc(C)c3cc(Nc4ccnc(N5C[C@@H](F)[C@@H](O)C(C)(C)C5)n4)ncc23)C1 (single isomer, unassigned) [Compound 60, (4S,5R)-1-{4-[(8-{3-[(ethanesulfonyl)methyl]azetidin-1-yl}-5-methylisoquinolin-3-yl)amino]pyrimidin-2-yl}-5-fluoro-3,3-dimethylpiperidin-4-ol or (4R,5S)-1-{4-[(8-{3-[(ethanesulfonyl)methyl]azetidin-1-yl}-5-methylisoquinolin-3-yl)amino]pyrimidin-2-yl}-5-fluoro-3,3-dimethylpiperidin-4-ol] | ≤ 15 nM | 20.1 to 30 nM
3 | CC(C)c1ccc(N2CC(CS(=O)(=O)C3CN(C)C3)C2)c2cnc(Nc3ccnc(N4CC[C@@H](O)[C@@](C)(F)C4)n3)cc12 (single isomer, unassigned) [Compound 238] | ≤ 15 nM | ≤ 10 nM
4 | CC(C)c1ccc(N2CC(CS(C)(=O)=O)C2)c2cnc(Nc3ccnc(N4CCCC(O)CC4)n3)cc12 (racemic) [Compound 21, (rac)-1-[4-({8-[3-(methanesulfonylmethyl)azetidin-1-yl]-5-(propan-2-yl)isoquinolin-3-yl}amino)pyrimidin-2-yl]azepan-4-ol] | 20.1 to 30 nM | 30.1 to 50 nM
5 | C[C@H](CO)c1ccc(N2CC(CS(C)(=O)=O)C2)c2cnc(Nc3ccnc(N4CCC5(CCO5)CC4)n3)cc12 (single isomer, unassigned) [Compound 87, (2S)-2-{8-[3-(methanesulfonylmethyl)azetidin-1-yl]-3-[(2-{1-oxa-7-azaspiro[3,5]nonan-7-yl}pyrimidin-4-yl)amino]isoquinolin-5-yl}propan-1-ol or (2R)-2-{8-[3-(methanesulfonylmethyl)azetidin-1-yl]-3-[(2-{1-oxa-7-azaspiro[3.5]nonan-7-yl}pyrimidin-4-yl)amino]isoquinolin-5-yl}propan-1-ol] | ≤ 15 nM | 20.1 to 30 nM
6 | CCS(=O)(=O)C[C@H]1CN(c2cnc(C(C)C)c3cc(Nc4ccnc(N5CC[C@](C)(O)[C@H](F)C5)n4)ncc23)[C@@H]1C (single isomer, unassigned) [Compound 195] | ≤ 15 nM | ≤ 10 nM
7 | CO[C@@H]1CCN(c2nccc(Nc3cc4c(C(C)C)cnc(N5CC(CS(C)(=O)=O)C5)c4cn3)n2)C[C@]1(C)F (single isomer, unassigned) [Compound 143] | ≤ 15 nM | ≤ 10 nM
8 | CC(C)c1ccc(N2CC(CS(C)(=O)=O)C2)c2cnc(Nc3ccnc(N4CCC(C)(O)CC4)n3)cc12 [Compound 17, 1-[4-({8-[3-(methanesulfonylmethyl)azetidin-1-yl]-5-(propan-2-yl)isoquinolin-3-yl}amino)pyrimidin-2-yl]-4-methylpiperidin-4-ol] | ≤ 15 nM | 10.1 to 20 nM
9 | CC(C)c1ccc(N2CC(CS(C)(=O)=O)C2)c2cnc(Nc3ccnc(N4C[C@@H](F)[C@@H](O)[C@@](C)(F)C4)n3)cc12 (single isomer, unassigned) [Compound 155, (3S,4R,5R)-3,5-difluoro-1-[4-({8-[3-(methanesulfonylmethyl)azetidin-1-yl]-5-(propan-2-yl)isoquinolin-3-yl}amino)pyrimidin-2-yl]-3-methylpiperidin-4-ol or (3R,4S,5S)-3,5-difluoro-1-[4-({8-[3-(methanesulfonylmethyl)azetidin-1-yl]-5-(propan-2-yl)isoquinolin-3-yl}amino)pyrimidin-2-yl]-3-methylpiperidin-4-ol] | ≤ 15 nM | ≤ 10 nM

Continued, values first:

Row | IC50 [1] | IC50 [2] | Compound
10 | ≤ 15 nM | 10.1 to 20 nM | CO[C@@H]1CCN(c2nccc(Nc3cc4cccc(N5C[C@H](CS(C)(=O)=O)[C@H]5C)c4cn3)n2)C[C@@H]1F [Compound 5, N-{2-[(3S,4R)-3-fluoro-4-methoxypiperidin-1-yl]pyrimidin-4-yl}-8-[(2R,3S)-3-(methanesulfonylmethyl)-2-methylazetidin-1-yl]isoquinolin-3-amine]
11 | ≤ 15 nM | ≤ 10 nM | CO[C@@H]1CCN(c2nncc(Nc3cc4c(C(C)C)ccc(N5CC(CS(C)(=O)=O)C5)c4cn3)n2)C[C@@H]1F [Compound 75, N-{3-[(3S,4R)-3-fluoro-4-methoxypiperidin-1-yl]-1,2,4-triazin-5-yl}-8-[3-(methanesulfonylmethyl)azetidin-1-yl]-5-(propan-2-yl)isoquinolin-3-amine]
12 | ≤ 15 nM | 30.1 to 50 nM | C[C@H](CO)c1ccc(N2C[C@H](CS(C)(=O)=O)[C@H]2C)c2cnc(Nc3ccnc(N4CC[C@](C)(O)[C@H](F)C4)n3)cc12 (single isomer, unassigned) [Compound 197, (3R,4S)-3-fluoro-1-[4-({5-[(2S)-1-hydroxypropan-2-yl]-8-[(2R,3S)-3-(methanesulfonylmethyl)-2-methylazetidin-1-yl]isoquinolin-3-yl}amino)pyrimidin-2-yl]-4-methylpiperidin-4-ol or (3R,4S)-3-fluoro-1-[4-({5-[(2R)-1-hydroxypropan-2-yl]-8-[(2R,3S)-3-(methanesulfonylmethyl)-2-methylazetidin-1-yl]isoquinolin-3-yl}amino)pyrimidin-2-yl]-4-methylpiperidin-4-ol]
13 | 15.1 to 20 nM | ≤ 10 nM | CC(C)c1ccc(N2C[C@@H](CS(C)(=O)=O)[C@@H]2C)c2cnc(Nc3ccnc(N4C[C@@H](F)[C@@H](O)C(C)(C)C4)n3)cc12 (single isomer, unassigned) [Compound 183, (4S,5R)-5-fluoro-1-[4-({8-[(2S,3R)-3-(methanesulfonylmethyl)-2-methylazetidin-1-yl]-5-(propan-2-yl)isoquinolin-3-yl}amino)pyrimidin-2-yl]-3,3-dimethylpiperidin-4-ol or (4R,5S)-5-fluoro-1-[4-({8-[(2S,3R)-3-(methanesulfonylmethyl)-2-methylazetidin-1-yl]-5-(propan-2-yl)isoquinolin-3-yl}amino)pyrimidin-2-yl]-3,3-dimethylpiperidin-4-ol]
14 | ≤ 15 nM | 10.1 to 20 nM | CO[C@@H]1CCN(c2nccc(Nc3cc4c(C(C)C)ncc(N5C[C@H](CS(C)(=O)=O)[C@H]5C)c4cn3)n2)C[C@@H]1O (single isomer, unassigned) [Compound 103, (3S,4R)-1-(4-(5-isopropyl-8-((2R,3S)-2-methyl-3-(methylsulfonylmethyl)azetidin-1-yl)-2,6-naphthyridin-3-ylamino)pyrimidin-2-yl)-4-methoxypiperidin-3-ol or (3R,4S)-1-(4-(5-isopropyl-8-((2R,3S)-2-methyl-3-(methylsulfonylmethyl)azetidin-1-yl)-2,6-naphthyridin-3-ylamino)pyrimidin-2-yl)-4-methoxypiperidin-3-ol]
15 | ≤ 15 nM | ≤ 10 nM | CC[C@@]1(F)CN(c2nccc(Nc3cc4c(C(C)C)ccc(N5C[C@H](CS(C)(=O)=O)[C@H]5C)c4cn3)n2)CC[C@@H]1O (single isomer, unassigned) [Compound 184, (3R,4S)-3-ethyl-3-fluoro-1-[4-({8-[(2R,3S)-3-(methanesulfonylmethyl)-2-methylazetidin-1-yl]-5-(propan-2-yl)isoquinolin-3-yl}amino)pyrimidin-2-yl]piperidin-4-ol or (3S,4R)-3-ethyl-3-fluoro-1-[4-({8-[(2R,3S)-3-(methanesulfonylmethyl)-2-methylazetidin-1-yl]-5-(propan-2-yl)isoquinolin-3-yl}amino)pyrimidin-2-yl]piperidin-4-ol]
16 | ≤ 15 nM | ≤ 10 nM | COC1(CO)CCN(c2nccc(Nc3cc4c(C(C)C)ccc(N5C[C@H](CS(C)(=O)=O)[C@H]5C)c4cn3)n2)CC1 [Compound 175, {1-[4-({8-[(2R,3S)-3-(methanesulfonylmethyl)-2-methylazetidin-1-yl]-5-(propan-2-yl)isoquinolin-3-yl}amino)pyrimidin-2-yl]-4-methoxypiperidin-4-yl}methanol]
17 | ≤ 15 nM | ≤ 10 nM | CO[C@@H]1CCN(c2nccc(Nc3cc4c(C(C)C)ncc(N5CC(CS(C)(=O)=O)C5)c4cn3)n2)C[C@@H]1F [Compound 74, N-{2-[(3S,4R)-3-fluoro-4-methoxypiperidin-1-yl]pyrimidin-4-yl}-8-[3-(methanesulfonylmethyl)azetidin-1-yl]-5-(propan-2-yl)-2,6-naphthyridin-3-amine]
18 | ≤ 15 nM | ≤ 10 nM | CO[C@@H]1CCN(c2nccc(Nc3cc4c(C(C)C)ncc(N5C[C@H](CS(C)(=O)=O)[C@H]5C)c4cn3)n2)C[C@@H]1F [Compound 139, N-{2-[(3S,4R)-3-fluoro-4-methoxypiperidin-1-yl]pyrimidin-4-yl}-8-[(2R,3S)-3-(methanesulfonylmethyl)-2-methylazetidin-1-yl]-5-(propan-2-yl)-2,6-naphthyridin-3-amine]
19 | ≤ 15 nM | ≤ 10 nM | CCS(=O)(=O)CC1CN(c2ccc(C(C)C)c3cc(Nc4ccnc(N5CC[C@H](OCCO)[C@H](F)C5)n4)ncc23)C1 [Compound 293, 2-{[(3R,4S)-1-{4-[(8-{3-[(ethanesulfonyl)methyl]azetidin-1-yl}-5-(propan-2-yl)isoquinolin-3-yl)amino]pyrimidin-2-yl}-3-fluoropiperidin-4-yl]oxy}ethan-1-ol]
